Converted amounts (≈) assume the structure as drawn.
test system: not given; test: not given; settings: not given

Row | melting point [°C] | SMILES
1 | 96 to 97 | CC(C)OCC1(C(F)(F)F)c2cc(F)ccc2Nc2ncc(Cl)cc21 (stereo not drawn) [Compound 6, 3-Chloro-7-fluoro-5-isopropoxymethyl-5-trifluoromethyl-5,10-dihydro-benzo[b][1,8]naphthyridine]
2 | 165 to 166 | CC(C)OCC1(C(F)(F)F)c2cc(F)ccc2Nc2c1cc(Cl)c[n+]2[O-] (stereo not drawn) [Compound 7, 3-Chloro-7-fluoro-5-isopropoxymethyl-5-trifluoromethyl-5,10-dihydro-benzo[b][1,8]naphthyridine 1-oxide]
3 | 137 to 138 | CC(C)OCC1(C(F)(F)F)c2cc(Cl)ccc2Nc2ncc(Cl)cc21 (stereo not drawn) [Compound 9, 3,7-Dichloro-5-isopropoxymethyl-5-trifluoromethyl-5,10-dihydro-benzo[b][1,8]naphthyridine]
4 | 76 to 77 | CC(C)OCC1(C(F)(F)F)c2cc(C#N)ccc2Nc2ncc(Br)cc21 (stereo not drawn) [Compound 15, 3-bromo-7-cyano-5-trifluoromethyl-5-isopropoxymethyl-5,10-dihydrobenzo[b][1,8]naphthyridine]
5 | 226 to 227 | CC(C)OCC1(C(F)(F)F)c2cc(C#N)ccc2Nc2ncc(C#N)cc21 (stereo not drawn) [Compound 17, 3,7-dicyano-5-trifluoromethyl-5-isopropoxymethyl-5,10-dihydrobenzo[b][1,8]naphthyridine]

test system: HIV-1 (RF); test: HIV RNA assay: microplate based compound evaluation in HIV-1 infected MT-2 cells; format: cell-based; settings: Human immunodeficiency virus 1, MT2, 72 h; HIV-1 (RF) infected MT-2 cells, 3 days culture; value used to standardize the virus inoculum; read-out: IC90 (concentration of compound required to reduce the HIV RNA level by 90%)
Description: DNA Plasmids and in Vitro RNA Transcripts:
Plasmid pDAB 72 containing both gag and pol sequences of BH10 (bp 113-1816) cloned into PTZ 19R was prepared according to Erickson-Viitanen et al. AIDS Research and Human Retroviruses 1989, 5, 577. The plasmid was linearized with Bam HI prior to the generation of in vitro RNA transcripts using the Riboprobe Gemini system II kit (Promega) with T7 RNA polymerase. Synthesized RNA was purified by treatment with RNase free DNAse (Promega), phenol-chloroform extraction, and ethanol precipitation. RNA transcripts were dissolved in water, and stored at −70° C. The concentration of RNA was determined from the A260.
Biotinylated capture probes were purified by HPLC after synthesis on an Applied Biosystems (Foster City, Calif.) DNA synthesizer by addition of biotin to the 5′ terminal end of the oligonucleotide, using the biotin-phosphoramidite reagent of Cocuzza, Tet. Lett. 1989, 30, 6287. […]
MT-2 and MT-4 cells were maintained in RPMI 1640 supplemented with 5% fetal calf serum (FCS) for MT-2 cells or 10% FCS for MT-4 cells, 2 mM L-glutamine and 50 μg/mL gentamycin, all from Gibco. […] Infectious titers of HIV-1(RF) stocks were 1-3×10^7 PFU (plaque forming units)/mL as measured by plaque assay on MT-2 cells (see below). […]

Row | IC90 [µg/mL] | SMILES
6 | 0.2 (≈ 0.947 µM) | Nc1ccn([C@H]2CC[C@@H](CO)O2)c(=O)n1 [ddC, 2′,3′-dideoxycytidine]

From patent US6825210B2, “Tricyclic compounds useful as HIV reverse transcriptase inhibitors” (Bristol-Myers Squibb Pharma Company, priority 2001, dated 2004)
